Experimental data taken from ChEMBL document CHEMBL4507283, “Data for DCP probe BI-1935” (2021).

Tests used:
[1] = biological target: Serine/threonine-protein kinase RIO1 (Homo sapiens) (UniProt Q9BRS2); settings: Compound concentration 1000.0 nM
[2] = biological target: Bone morphogenetic protein receptor type-1A (Homo sapiens) (UniProt P36894); settings: Compound concentration 1000.0 nM
[3] = test system: Receptor-type tyrosine-protein kinase FLT3 (Homo sapiens), P36888 [D835Y]; settings: Compound concentration 1000.0 nM
[4] = biological target: Serine/threonine-protein kinase PAK 3 (Homo sapiens) (UniProt O75914); settings: Compound concentration 1000.0 nM
[5] = biological target: Calcitonin-gene-related peptide receptor, CALCRL/RAMP1 (Homo sapiens) (UniProt O60894+Q16602); experiment: CGRP/HU Eurofins-Panlabs selectivity data (BI); type: protein-complex assay; settings: Compound concentration 10.0 uM
[6] = biological target: Serine/threonine-protein kinase Sgk3 (Homo sapiens) (UniProt Q96BR1); settings: Compound concentration 1000.0 nM
[7] = biological target: Phosphatidylinositol 4,5-bisphosphate 3-kinase catalytic subunit delta isoform (Homo sapiens) (UniProt O00329); settings: Compound concentration 1000.0 nM
[8] = test system: Mast/stem cell growth factor receptor Kit (Homo sapiens), P10721 [D816H]; settings: Compound concentration 1000.0 nM
[9] = biological target: SRSF protein kinase 3 (Homo sapiens) (UniProt Q9UPE1); settings: Compound concentration 1000.0 nM
[10] = biological target: Cyclin-dependent kinase 11B (Homo sapiens) (UniProt P21127); settings: Compound concentration 1000.0 nM
[11] = test system: Mast/stem cell growth factor receptor Kit (Homo sapiens), P10721 [D816V]; settings: Compound concentration 1000.0 nM
[12] = biological target: Mitogen-activated protein kinase kinase kinase 15 (Homo sapiens) (UniProt Q6ZN16); settings: Compound concentration 1000.0 nM
[13] = biological target: NT-3 growth factor receptor (Homo sapiens) (UniProt Q16288); settings: Compound concentration 1000.0 nM
[14] = biological target: Serine/threonine-protein kinase PLK3 (Homo sapiens) (UniProt Q9H4B4); settings: Compound concentration 1000.0 nM
[15] = biological target: Histamine H4 receptor (Homo sapiens) (UniProt Q9H3N8); settings: Compound concentration 10.0 uM
[16] = biological target: Myosin light chain kinase (Homo sapiens) (UniProt Q32MK0); settings: Compound concentration 1000.0 nM
[17] = biological target: Serine/threonine-protein kinase ULK1 (Homo sapiens) (UniProt O75385); settings: Compound concentration 1000.0 nM
[18] = biological target: Mitogen-activated protein kinase 3 (Homo sapiens) (UniProt P27361); settings: Compound concentration 1000.0 nM
[19] = biological target: Phosphatidylinositol 4-kinase beta (Homo sapiens) (UniProt Q9UBF8); settings: Compound concentration 1000.0 nM
[20] = biological target: Angiotensin-converting enzyme (Oryctolagus cuniculus) (UniProt P12822); experiment: ANGIOCONVENZ Eurofins-Panlabs selectivity data (BI); settings: Compound concentration 10.0 uM
[21] = biological target: Vasopressin V1a receptor (Homo sapiens) (UniProt P37288); experiment: V1A/HU Eurofins-Panlabs selectivity data (BI); settings: Compound concentration 10.0 uM
[22] = test system: Receptor-type tyrosine-protein kinase FLT3 (Homo sapiens), P36888 [K663Q]; settings: Compound concentration 1000.0 nM
[23] = biological target: Cyclin-dependent kinase 3 (Homo sapiens) (UniProt Q00526); settings: Compound concentration 1000.0 nM
[24] = biological target: cGMP-inhibited 3',5'-cyclic phosphodiesterase 3A (Homo sapiens) (UniProt Q14432); experiment: PDE-III/HU Eurofins-Panlabs selectivity data (BI); settings: Compound concentration 10.0 uM
[25] = biological target: Transient receptor potential cation channel subfamily M member 6 (Homo sapiens) (UniProt Q9BX84); settings: Compound concentration 1000.0 nM
[26] = test system: Receptor-type tyrosine-protein kinase FLT3 (Homo sapiens), P36888 [UNDEFINED MUTATION]; settings: Compound concentration 1000.0 nM
[27] = biological target: Rho-associated protein kinase 2 (Homo sapiens) (UniProt O75116); settings: Compound concentration 1000.0 nM
[28] = biological target: Prostaglandin G/H synthase 1 (Homo sapiens) (UniProt P23219); experiment: COX-1 Eurofins-Panlabs selectivity data (BI); settings: Compound concentration 10.0 uM
[29] = biological target: Serine/threonine-protein kinase SBK1 (Homo sapiens) (UniProt Q52WX2); settings: Compound concentration 1000.0 nM
[30] = test system: Mast/stem cell growth factor receptor Kit (Homo sapiens), P10721 [A829P]; settings: Compound concentration 1000.0 nM
[31] = biological target: Mitotic checkpoint serine/threonine-protein kinase BUB1 (Homo sapiens) (UniProt O43683); settings: Compound concentration 1000.0 nM
[32] = biological target: Mitogen-activated protein kinase 15 (Homo sapiens) (UniProt Q8TD08); settings: Compound concentration 1000.0 nM
[33] = biological target: Muscarinic acetylcholine receptor M4 (Homo sapiens) (UniProt P08173); settings: Compound concentration 10.0 uM
[34] = biological target: GABA-A receptor; anion channel (Rattus norvegicus) (UniProt O09028+P15431+P18506+P18508+P19969+P20236+P23574+P23576+P28471+P28473+P30191+P62813+P63079+P63138+Q91ZM7+Q9ES14); settings: Compound concentration 10.0 uM
[35] = biological target: Serine/threonine-protein kinase PAK 1 (Homo sapiens) (UniProt Q13153); settings: Compound concentration 1000.0 nM
[36] = test system: Hepatocyte growth factor receptor (Homo sapiens), P08581 [Y1235D]; settings: Compound concentration 1000.0 nM
[37] = biological target: Protein kinase C epsilon type (Homo sapiens) (UniProt Q02156); settings: Compound concentration 1000.0 nM
[38] = biological target: Leucine-rich repeat serine/threonine-protein kinase 2 (Homo sapiens) (UniProt Q5S007); settings: Compound concentration 1000.0 nM
[39] = biological target: Alpha-2B adrenergic receptor (Homo sapiens) (UniProt P18089); settings: Compound concentration 10.0 uM
[40] = biological target: Casein kinase I isoform epsilon (Homo sapiens) (UniProt P49674); settings: Compound concentration 1000.0 nM
[41] = biological target: Serine/threonine-protein kinase Nek10 (Homo sapiens) (UniProt Q6ZWH5); settings: Compound concentration 1000.0 nM
[42] = biological target: Tyrosine-protein kinase JAK3 (Homo sapiens) (UniProt P52333); settings: Compound concentration 1000.0 nM
[43] = biological target: Hepatocyte growth factor receptor (Homo sapiens) (UniProt P08581); settings: Compound concentration 1000.0 nM

SRSF protein kinase 3 (Homo sapiens), sequence (Q9UPE1 whole entry): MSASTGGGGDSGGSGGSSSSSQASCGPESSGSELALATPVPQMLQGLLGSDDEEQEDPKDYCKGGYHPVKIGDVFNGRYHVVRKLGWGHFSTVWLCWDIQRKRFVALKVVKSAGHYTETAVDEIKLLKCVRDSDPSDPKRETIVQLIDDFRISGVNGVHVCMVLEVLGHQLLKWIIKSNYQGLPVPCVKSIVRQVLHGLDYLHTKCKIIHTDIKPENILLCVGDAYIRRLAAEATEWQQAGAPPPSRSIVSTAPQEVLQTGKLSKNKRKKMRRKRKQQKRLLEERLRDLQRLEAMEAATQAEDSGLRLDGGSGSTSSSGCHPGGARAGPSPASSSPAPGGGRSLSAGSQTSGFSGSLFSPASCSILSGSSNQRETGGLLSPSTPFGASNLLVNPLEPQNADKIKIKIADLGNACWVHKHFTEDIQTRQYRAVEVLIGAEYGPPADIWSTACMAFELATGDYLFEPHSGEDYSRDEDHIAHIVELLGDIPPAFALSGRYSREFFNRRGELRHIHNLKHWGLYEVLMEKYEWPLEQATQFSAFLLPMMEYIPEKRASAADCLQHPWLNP
Serine/threonine-protein kinase PLK3 (Homo sapiens), sequence (Q9H4B4 whole entry, looked up): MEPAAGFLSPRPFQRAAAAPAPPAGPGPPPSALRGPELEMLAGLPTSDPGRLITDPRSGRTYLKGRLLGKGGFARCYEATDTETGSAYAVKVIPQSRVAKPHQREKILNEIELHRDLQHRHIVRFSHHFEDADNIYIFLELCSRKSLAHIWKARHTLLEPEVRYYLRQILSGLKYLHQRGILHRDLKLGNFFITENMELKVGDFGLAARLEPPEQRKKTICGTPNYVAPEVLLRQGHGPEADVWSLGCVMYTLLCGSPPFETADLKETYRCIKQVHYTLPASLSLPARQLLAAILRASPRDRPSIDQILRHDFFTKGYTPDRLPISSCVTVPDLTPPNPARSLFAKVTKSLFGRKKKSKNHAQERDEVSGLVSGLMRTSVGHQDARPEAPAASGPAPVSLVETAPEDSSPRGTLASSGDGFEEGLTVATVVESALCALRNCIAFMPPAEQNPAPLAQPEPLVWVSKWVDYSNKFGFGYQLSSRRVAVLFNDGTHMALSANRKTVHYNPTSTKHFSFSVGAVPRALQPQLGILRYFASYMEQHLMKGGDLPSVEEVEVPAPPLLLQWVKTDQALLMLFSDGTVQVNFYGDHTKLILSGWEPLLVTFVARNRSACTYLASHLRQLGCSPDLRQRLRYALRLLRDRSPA
Mitotic checkpoint serine/threonine-protein kinase BUB1 (Homo sapiens), sequence (O43683 whole entry, looked up): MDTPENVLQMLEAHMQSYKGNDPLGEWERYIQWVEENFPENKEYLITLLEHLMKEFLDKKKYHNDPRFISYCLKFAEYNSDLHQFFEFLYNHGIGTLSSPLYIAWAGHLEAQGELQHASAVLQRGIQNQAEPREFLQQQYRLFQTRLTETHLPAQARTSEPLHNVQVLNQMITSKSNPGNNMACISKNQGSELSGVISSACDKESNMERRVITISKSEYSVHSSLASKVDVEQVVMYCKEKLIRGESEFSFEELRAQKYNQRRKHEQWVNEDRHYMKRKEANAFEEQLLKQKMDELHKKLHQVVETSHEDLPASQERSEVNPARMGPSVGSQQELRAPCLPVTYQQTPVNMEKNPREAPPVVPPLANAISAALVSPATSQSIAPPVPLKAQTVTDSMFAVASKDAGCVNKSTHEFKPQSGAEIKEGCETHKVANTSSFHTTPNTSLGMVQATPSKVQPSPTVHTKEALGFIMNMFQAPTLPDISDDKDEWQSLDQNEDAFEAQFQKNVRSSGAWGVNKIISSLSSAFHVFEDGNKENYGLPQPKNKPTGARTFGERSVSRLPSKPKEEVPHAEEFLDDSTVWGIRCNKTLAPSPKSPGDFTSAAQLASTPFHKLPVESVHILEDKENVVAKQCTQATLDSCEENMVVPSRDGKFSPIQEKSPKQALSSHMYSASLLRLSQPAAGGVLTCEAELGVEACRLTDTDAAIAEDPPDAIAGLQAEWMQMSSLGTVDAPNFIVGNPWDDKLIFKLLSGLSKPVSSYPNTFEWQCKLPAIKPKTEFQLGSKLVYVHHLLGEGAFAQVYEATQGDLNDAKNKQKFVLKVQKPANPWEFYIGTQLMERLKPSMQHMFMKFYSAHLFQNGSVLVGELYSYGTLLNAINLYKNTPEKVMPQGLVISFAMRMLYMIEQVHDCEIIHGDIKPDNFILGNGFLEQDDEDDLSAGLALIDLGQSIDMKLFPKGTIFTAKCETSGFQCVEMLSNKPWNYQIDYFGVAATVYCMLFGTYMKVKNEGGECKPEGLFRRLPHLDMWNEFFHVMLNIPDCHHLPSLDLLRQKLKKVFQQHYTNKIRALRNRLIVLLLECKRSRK
Serine/threonine-protein kinase Sgk3 (Homo sapiens), sequence (Q96BR1 whole entry, canonical isoform): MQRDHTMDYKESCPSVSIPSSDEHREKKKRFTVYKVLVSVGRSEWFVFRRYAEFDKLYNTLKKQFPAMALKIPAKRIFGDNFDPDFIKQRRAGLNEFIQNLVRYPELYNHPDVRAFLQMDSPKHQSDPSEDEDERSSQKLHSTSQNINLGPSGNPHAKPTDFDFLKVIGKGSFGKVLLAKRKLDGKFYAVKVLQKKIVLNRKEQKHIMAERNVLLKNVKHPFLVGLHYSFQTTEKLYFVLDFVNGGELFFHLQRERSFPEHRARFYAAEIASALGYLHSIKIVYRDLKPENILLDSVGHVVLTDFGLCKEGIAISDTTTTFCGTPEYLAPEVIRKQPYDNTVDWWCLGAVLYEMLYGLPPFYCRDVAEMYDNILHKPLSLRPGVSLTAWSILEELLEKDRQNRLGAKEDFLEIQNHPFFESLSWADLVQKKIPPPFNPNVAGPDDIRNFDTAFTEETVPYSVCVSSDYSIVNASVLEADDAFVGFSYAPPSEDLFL
Bone morphogenetic protein receptor type-1A (Homo sapiens), sequence (P36894 whole entry): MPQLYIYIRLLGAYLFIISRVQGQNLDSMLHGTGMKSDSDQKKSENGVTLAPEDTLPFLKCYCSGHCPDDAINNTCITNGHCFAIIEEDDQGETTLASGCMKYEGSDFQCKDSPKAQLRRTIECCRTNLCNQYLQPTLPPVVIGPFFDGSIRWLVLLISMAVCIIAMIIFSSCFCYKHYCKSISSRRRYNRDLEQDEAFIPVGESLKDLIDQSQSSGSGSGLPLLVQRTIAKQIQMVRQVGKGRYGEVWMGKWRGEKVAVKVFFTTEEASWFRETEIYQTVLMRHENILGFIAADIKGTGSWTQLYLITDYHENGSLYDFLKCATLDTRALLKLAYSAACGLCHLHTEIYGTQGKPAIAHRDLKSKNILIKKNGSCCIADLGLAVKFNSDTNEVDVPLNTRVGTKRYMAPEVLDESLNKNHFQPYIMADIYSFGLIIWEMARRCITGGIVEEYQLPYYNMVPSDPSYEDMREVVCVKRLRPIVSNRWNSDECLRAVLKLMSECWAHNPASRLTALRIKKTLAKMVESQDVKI
Cyclin-dependent kinase 3 (Homo sapiens), sequence (Q00526 whole entry, looked up): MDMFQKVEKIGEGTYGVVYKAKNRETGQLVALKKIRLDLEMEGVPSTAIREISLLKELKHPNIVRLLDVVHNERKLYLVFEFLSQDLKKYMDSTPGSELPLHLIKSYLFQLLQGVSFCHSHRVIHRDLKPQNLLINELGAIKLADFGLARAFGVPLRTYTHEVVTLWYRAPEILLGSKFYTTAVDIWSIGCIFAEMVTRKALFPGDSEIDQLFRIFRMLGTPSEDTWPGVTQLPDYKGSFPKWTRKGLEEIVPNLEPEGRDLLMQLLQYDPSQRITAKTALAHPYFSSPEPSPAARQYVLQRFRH
Mast/stem cell growth factor receptor Kit (Homo sapiens), P10721 [D816V], sequence (P10721 whole entry D816V): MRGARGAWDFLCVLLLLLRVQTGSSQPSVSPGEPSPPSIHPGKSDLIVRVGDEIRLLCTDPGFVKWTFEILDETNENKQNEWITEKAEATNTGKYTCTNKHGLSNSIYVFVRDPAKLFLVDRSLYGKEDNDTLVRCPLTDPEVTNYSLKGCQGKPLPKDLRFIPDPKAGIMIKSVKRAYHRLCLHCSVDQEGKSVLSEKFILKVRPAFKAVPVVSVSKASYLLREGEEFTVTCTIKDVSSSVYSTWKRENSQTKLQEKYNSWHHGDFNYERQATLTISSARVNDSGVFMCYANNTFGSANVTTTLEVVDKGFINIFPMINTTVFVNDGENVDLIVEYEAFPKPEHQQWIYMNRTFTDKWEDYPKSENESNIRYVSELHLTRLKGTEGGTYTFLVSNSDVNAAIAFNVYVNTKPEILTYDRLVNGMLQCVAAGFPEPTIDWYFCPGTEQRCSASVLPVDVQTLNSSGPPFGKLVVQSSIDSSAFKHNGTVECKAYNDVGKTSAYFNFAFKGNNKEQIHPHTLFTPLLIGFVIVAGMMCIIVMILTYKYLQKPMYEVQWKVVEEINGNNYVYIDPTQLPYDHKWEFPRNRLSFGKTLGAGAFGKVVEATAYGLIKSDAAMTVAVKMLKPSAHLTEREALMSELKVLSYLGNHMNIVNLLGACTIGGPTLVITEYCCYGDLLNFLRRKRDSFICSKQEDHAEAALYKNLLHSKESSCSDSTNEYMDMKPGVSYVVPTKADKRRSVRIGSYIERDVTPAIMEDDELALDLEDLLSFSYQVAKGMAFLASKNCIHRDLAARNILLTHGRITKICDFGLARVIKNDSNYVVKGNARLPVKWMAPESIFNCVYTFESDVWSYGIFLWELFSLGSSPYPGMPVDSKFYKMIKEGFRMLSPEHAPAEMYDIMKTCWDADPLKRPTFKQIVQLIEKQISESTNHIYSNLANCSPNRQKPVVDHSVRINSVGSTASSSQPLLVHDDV
Serine/threonine-protein kinase SBK1 (Homo sapiens), sequence (Q52WX2 whole entry): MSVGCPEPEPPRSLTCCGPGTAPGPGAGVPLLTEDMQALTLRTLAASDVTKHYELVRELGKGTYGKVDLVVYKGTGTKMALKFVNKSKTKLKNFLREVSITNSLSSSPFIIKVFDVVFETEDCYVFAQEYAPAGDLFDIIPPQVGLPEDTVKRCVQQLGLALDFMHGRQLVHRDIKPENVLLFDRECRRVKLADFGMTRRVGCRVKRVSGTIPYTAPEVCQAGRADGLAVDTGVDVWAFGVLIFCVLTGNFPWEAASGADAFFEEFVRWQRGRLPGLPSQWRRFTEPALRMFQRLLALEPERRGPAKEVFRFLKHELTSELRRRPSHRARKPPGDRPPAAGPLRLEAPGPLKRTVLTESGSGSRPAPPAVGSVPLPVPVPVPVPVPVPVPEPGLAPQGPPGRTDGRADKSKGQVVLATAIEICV

CCOCCn1cc(C(=O)Nc2ccc(-n3nc(-c4cccnc4)cc3C(F)(F)F)cn2)ccc1=O [BI 1935]
inactive: residual activity [1] 100% | residual activity [2] 70% | residual activity [3] 98% | residual activity [4] 100% | residual activity [5] 105% | residual activity [6] 65% | residual activity [7] 100% | residual activity [8] 79% | residual activity [9] 100% | residual activity [10] 100% | residual activity [11] 92% | residual activity [12] 100% | residual activity [13] 100% | residual activity [14] 84% | inhibition [15] 48.6% | residual activity [16] 97% | residual activity [17] 76% | residual activity [18] 100% | residual activity [19] 100% | residual activity [20] 101% | residual activity [21] 98% | residual activity [22] 98% | residual activity [23] 100% | residual activity [24] 85% | residual activity [25] 73% | residual activity [26] 86% | residual activity [27] 88% | residual activity [28] 163% | residual activity [29] 91% | residual activity [30] 100% | residual activity [31] 79% | residual activity [32] 100% | inhibition [33] 4.25% | inhibition [34] 34.3% | residual activity [35] 96% | residual activity [36] 100% | residual activity [37] 100% | residual activity [38] 100% | inhibition [39] 4.9% | residual activity [40] 100% | residual activity [41] 94% | residual activity [42] 100% | residual activity [43] 95%
